ChEMBL document CHEMBL1140142, “Myxochromide B3, a new member of the myxochromide family of secondary metabolites” (J Nat Prod, 2008)
Active and inactive are the calls of the source.

Columns and labels:
Type in all cases: functional, organism-based
[1] = test system: Priestia megaterium; assay: Antimicrobial activity against Bacillus megaterium at 50 ug/disk by disk diffusion assay
[2] = test system: Microbotryum violaceum; assay: Antimicrobial activity against Microbotryum violaceum at 50 ug/disk by disk diffusion assay
[3] = test system: Aspergillus ruber; assay: Antimicrobial activity against Eurotium rubrum at 50 ug/disk by disk diffusion assay
[4] = test system: Mycotypha microspora; assay: Antimicrobial activity against Mycotypha microspora at 50 ug/disk by disk diffusion assay
[5] = test system: [Chlorella] fusca; assay: Antimicrobial activity against Chlorella fusca at 50 ug/disk by disk diffusion assay; details: Scenedesmus fuscus
[6] = test system: Escherichia coli; assay: Antimicrobial activity against Escherichia coli at 50 ug/disk by disk diffusion assay

Measured: Activity

C/C=C/C=C/C=C/C=C/C=C/C=C/C=C/C=C/C(=O)N(C)[C@@H]1C(=O)N[C@H](C)C(=O)N[C@@H](CC(C)C)C(=O)N2CCC[C@H]2C(=O)N[C@@H](C)C(=O)N[C@@H](CCC(N)=O)C(=O)O[C@@H]1C
inactive: all assays above

C/C=C/C=C/C=C/C=C/C=C/C=C/C=C/C=C/C(=O)N(C)[C@@H]1C(=O)N[C@H](C)C(=O)N[C@@H](CC(C)C)C(=O)N[C@@H](CC(C)C)C(=O)N2CCC[C@H]2C(=O)N[C@@H](C)C(=O)N[C@@H](CCC(N)=O)C(=O)O[C@@H]1C
inactive: all assays above
